Measurements from publication PMC5218480 (PLoS ONE, 2017).

Test system: MV-4-11 cells
Test: Gene expression microarray analysis (Affymetrix PrimeView) and GSEA
Type: cell-based, human
Parameters: RFU PODN (11730768_x_at) / Fold change /veh PODN (11730768_x_at) / RFU LINC00158 (11744669_a_at) / Fold change /veh LINC00158 (11744669_a_at) / RFU DUSP10 (11751237_a_at) / Fold change /veh DUSP10 (11751237_a_at) / RFU ID3 (11757404_x_at) / Fold change /veh ID3 (11757404_x_at) / RFU PLEKHG5 (11737974_s_at) / Fold change /veh PLEKHG5 (11737974_s_at) / RFU LRRC4B (11730491_at) / Fold change /veh LRRC4B (11730491_at) / RFU GIMAP4 (11747438_a_at) / Fold change /veh GIMAP4 (11747438_a_at) / RFU KRT8 (11758183_x_at) / Fold change /veh KRT8 (11758183_x_at) / RFU CNN1 (11734310_a_at) / Fold change /veh CNN1 (11734310_a_at) / RFU VPS37D (11726825_at) / Fold change /veh VPS37D (11726825_at) / RFU C10orf10 (11716522_x_at) / Fold change /veh C10orf10 (11716522_x_at) / RFU KIR2DL2 /// KIR2DL4 /// KIR2DL5A /// KIR2DL5B /// KIR2DS1 /// KIR2DS2 /// KIR2DS3 /// KIR2DS4 /// KIR3DL3 /// KIR3DL3 /// KIR3DS1 (11738374_at) / Fold change /veh KIR2DL2 /// KIR2DL4 /// KIR2DL5A /// KIR2DL5B /// KIR2DS1 /// KIR2DS2 /// KIR2DS3 /// KIR2DS4 /// KIR3DL3 /// KIR3DL3 /// KIR3DS1 (11738374_at) / RFU C1QL1 (11718748_at) / Fold change /veh C1QL1 (11718748_at) / RFU TMPRSS4 (11747572_a_at) / Fold change /veh TMPRSS4 (11747572_a_at) / RFU HAMP (11756126_x_at) / Fold change /veh HAMP (11756126_x_at) / RFU RNFT2 (11725882_a_at) / Fold change /veh RNFT2 (11725882_a_at) / RFU NR4A2 (11747474_a_at) / Fold change /veh NR4A2 (11747474_a_at) / RFU ABCC12 (11746883_a_at) / Fold change /veh ABCC12 (11746883_a_at) / RFU TMEM136 (11760407_x_at) / Fold change /veh TMEM136 (11760407_x_at) / RFU CLDN22 /// WWC2 (11732394_at) / Fold change /veh CLDN22 /// WWC2 (11732394_at) / RFU HLA-DPB1 (11760878_x_at) / Fold change /veh HLA-DPB1 (11760878_x_at) / RFU SPINT1 (11716480_a_at) / Fold change /veh SPINT1 (11716480_a_at) / RFU GAP43 (11754022_s_at) / Fold change /veh GAP43 (11754022_s_at) / RFU A4GNT (11735810_at) / Fold change /veh A4GNT (11735810_at) / RFU PRB3 (11715151_x_at) / Fold change /veh PRB3 (11715151_x_at) / RFU TUBB4B (11761932_at) / Fold change /veh TUBB4B (11761932_at) / RFU CAPN14 (11732068_a_at) / Fold change /veh CAPN14 (11732068_a_at) / RFU TMCC2 (11721928_a_at) / Fold change /veh TMCC2 (11721928_a_at) / RFU IRGQ (11745062_a_at) / Fold change /veh IRGQ (11745062_a_at) / RFU FAM174B (11720279_a_at) / Fold change /veh FAM174B (11720279_a_at) / RFU TMPRSS4 (11748680_a_at) / Fold change /veh TMPRSS4 (11748680_a_at) / RFU FAM212B (11763350_a_at) / Fold change /veh FAM212B (11763350_a_at) / RFU PLEKHG5 (11743358_a_at) / Fold change /veh PLEKHG5 (11743358_a_at) / RFU ZSCAN30 (11745921_a_at) / Fold change /veh ZSCAN30 (11745921_a_at) / RFU CMKLR1 (11741424_a_at) / Fold change /veh CMKLR1 (11741424_a_at) / RFU LOC101060620 /// MAPK8IP1 (11723275_at) / Fold change /veh LOC101060620 /// MAPK8IP1 (11723275_at) / RFU SPTSSB (11747773_x_at) / Fold change /veh SPTSSB (11747773_x_at) / RFU PRSS12 (11739890_at) / Fold change /veh PRSS12 (11739890_at) / RFU BIN1 (11741810_x_at) / Fold change /veh BIN1 (11741810_x_at) / RFU WNT11 (11732464_a_at) / Fold change /veh WNT11 (11732464_a_at) / RFU C10orf10 (11716521_a_at) / Fold change /veh C10orf10 (11716521_a_at) / RFU C5orf56 (11738089_at) / Fold change /veh C5orf56 (11738089_at) / RFU CYB561 (11721691_x_at) / Fold change /veh CYB561 (11721691_x_at) / RFU ANKRD19P (11752326_a_at) / Fold change /veh ANKRD19P (11752326_a_at) / RFU OR2T12 /// OR2T33 /// OR2T8 (11738714_s_at) / Fold change /veh OR2T12 /// OR2T33 /// OR2T8 (11738714_s_at) / RFU VCAN (11748164_a_at) / Fold change /veh VCAN (11748164_a_at) / RFU JSRP1 (11732532_at) / Fold change /veh JSRP1 (11732532_at) / RFU KRTAP10-11 (11738290_x_at) / Fold change /veh KRTAP10-11 (11738290_x_at) / RFU MYO3A (11730013_a_at) / Fold change /veh MYO3A (11730013_a_at) / RFU EBF3 (11725865_a_at) / Fold change /veh EBF3 (11725865_a_at) / RFU CAMK2N1 (11719241_x_at) / Fold change /veh CAMK2N1 (11719241_x_at) / RFU C5orf56 (11738088_a_at) / Fold change /veh C5orf56 (11738088_a_at) / RFU OLFML3 (11715873_a_at) / Fold change /veh OLFML3 (11715873_a_at) / RFU LOC100653217 /// NTM (11731650_a_at) / Fold change /veh LOC100653217 /// NTM (11731650_a_at) / RFU MAPK11 (11762145_a_at) / Fold change /veh MAPK11 (11762145_a_at) / RFU FIZ1 (11724087_x_at) / Fold change /veh FIZ1 (11724087_x_at) / RFU OASL (11726364_x_at) / Fold change /veh OASL (11726364_x_at) / RFU SOX15 (11748057_x_at) / Fold change /veh SOX15 (11748057_x_at) / RFU CD79A (11719716_a_at) / Fold change /veh CD79A (11719716_a_at) / RFU HIST1H1D (11736915_at) / Fold change /veh HIST1H1D (11736915_at) / RFU CASKIN2 (11723855_a_at) / Fold change /veh CASKIN2 (11723855_a_at) / RFU LOC730098 (11760151_x_at) / Fold change /veh LOC730098 (11760151_x_at) / RFU OR4N2 (11742367_at) / Fold change /veh OR4N2 (11742367_at) / RFU PRRT2 (11749266_a_at) / Fold change /veh PRRT2 (11749266_a_at) / RFU SNX32 (11753110_a_at) / Fold change /veh SNX32 (11753110_a_at) / RFU CDHR5 (11726645_a_at) / Fold change /veh CDHR5 (11726645_a_at) / RFU RCAN1 (11760418_a_at) / Fold change /veh RCAN1 (11760418_a_at) / RFU FAM167A (11723789_a_at) / Fold change /veh FAM167A (11723789_a_at) / RFU FAM26E (11764081_at) / Fold change /veh FAM26E (11764081_at) / RFU ISYNA1 (11749810_s_at) / Fold change /veh ISYNA1 (11749810_s_at) / RFU ACY1 (11761880_at) / Fold change /veh ACY1 (11761880_at) / RFU 11764098_at / Fold change /veh 11764098_at / RFU SAMD14 (11745864_x_at) / Fold change /veh SAMD14 (11745864_x_at) / RFU NPB (11741838_a_at) / Fold change /veh NPB (11741838_a_at) / RFU TMPRSS6 (11731388_a_at) / Fold change /veh TMPRSS6 (11731388_a_at) / RFU KRTAP10-2 (11738614_at) / Fold change /veh KRTAP10-2 (11738614_at) / RFU ARHGAP8 /// PRR5-ARHGAP8 (11727945_x_at) / Fold change /veh ARHGAP8 /// PRR5-ARHGAP8 (11727945_x_at) / RFU KRTAP5-7 /// NADSYN1 (11734609_at) / Fold change /veh KRTAP5-7 /// NADSYN1 (11734609_at) / RFU RASL12 (11751679_a_at) / Fold change /veh RASL12 (11751679_a_at) / RFU CDKN2B (11736163_a_at) / Fold change /veh CDKN2B (11736163_a_at) / RFU PRF1 (11729649_at) / Fold change /veh PRF1 (11729649_at) / RFU, ZNF638 /// ZNF638-IT1 / Fold change vs veh, ZNF638 /// ZNF638-IT1 / RFU, PANK3 / Fold change vs veh, PANK3 / RFU, SH3YL1 / Fold change vs veh, SH3YL1 / RFU, ZEB2 / Fold change vs veh, ZEB2 / RFU, NRIP1 / Fold change vs veh, NRIP1 / RFU, PTTG1IP / Fold change vs veh, PTTG1IP / RFU, CAPN2 / Fold change vs veh, CAPN2 / RFU, MED14 / Fold change vs veh, MED14 / RFU, SNORA58 / Fold change vs veh, SNORA58 / RFU, C1orf63 / Fold change vs veh, C1orf63 / RFU, LRRFIP1 / Fold change vs veh, LRRFIP1 / RFU, NDUFAF7 / Fold change vs veh, NDUFAF7 / RFU, SLC12A2 / Fold change vs veh, SLC12A2 / RFU, IBTK / Fold change vs veh, IBTK / RFU, ESF1 / Fold change vs veh, ESF1 / Fold change vs veh, TMEM50B / RFU, TAOK1 / Fold change vs veh, TAOK1 / RFU, ACBD3 / Fold change vs veh, ACBD3 / RFU, TMA16 / Fold change vs veh, TMA16 / RFU, RWDD3 / Fold change vs veh, RWDD3 / RFU, BCAT1 / Fold change vs veh, BCAT1 / RFU, EDEM3 / Fold change vs veh, EDEM3 / RFU, TMEM33 / Fold change vs veh, TMEM33 / RFU, WDR75 / Fold change vs veh, WDR75 / RFU, AHCTF1 / Fold change vs veh, AHCTF1 / RFU, TFRC / Fold change vs veh, TFRC / RFU, ZDHHC17 / Fold change vs veh, ZDHHC17 / RFU, NOM1 / Fold change vs veh, NOM1 / RFU, ARL8B / Fold change vs veh, ARL8B / RFU, ZBTB11 / Fold change vs veh, ZBTB11 / RFU, TAMM41 / Fold change vs veh, TAMM41 / RFU, KIAA1704 /// LOC100996395 / Fold change vs veh, KIAA1704 /// LOC100996395 / RFU, ING1 / Fold change vs veh, ING1 / RFU, TRMT61B / Fold change vs veh, TRMT61B / RFU, FUBP3 / Fold change vs veh, FUBP3 / RFU, TP53 / Fold change vs veh, TP53 / RFU, TNKS2 / Fold change vs veh, TNKS2 / RFU, ZFP14 / Fold change vs veh, ZFP14 / RFU, ACTR2 / Fold change vs veh, ACTR2 / RFU, PPP3R1 / Fold change vs veh, PPP3R1 / RFU, PIK3R1 / Fold change vs veh, PIK3R1 / RFU, HNRNPA1 / Fold change vs veh, HNRNPA1 / RFU, RNF170 / Fold change vs veh, RNF170 / RFU, ZNF28 / Fold change vs veh, ZNF28 / RFU, RNGTT / Fold change vs veh, RNGTT / RFU, OGT / Fold change vs veh, OGT / RFU, BRD1 / Fold change vs veh, BRD1 / RFU, MARS / Fold change vs veh, MARS / RFU, ZNF655 / Fold change vs veh, ZNF655 / RFU, FAHD1 / Fold change vs veh, FAHD1 / RFU, BDP1 / Fold change vs veh, BDP1 / RFU, LRRCC1 / Fold change vs veh, LRRCC1 / RFU, ARID1A / Fold change vs veh, ARID1A / RFU, ZNF146 / Fold change vs veh, ZNF146 / RFU, ZNF330 / Fold change vs veh, ZNF330 / RFU, GPN3 / Fold change vs veh, GPN3 / RFU, C9orf123 / Fold change vs veh, C9orf123 / RFU, N4BP2L2 / Fold change vs veh, N4BP2L2 / RFU, ARFIP1 / Fold change vs veh, ARFIP1 / RFU, FAM179B / Fold change vs veh, FAM179B / RFU, BCL10 / Fold change vs veh, BCL10 / RFU, UHRF1BP1L / Fold change vs veh, UHRF1BP1L / RFU, BET1 / Fold change vs veh, BET1 / RFU, CNOT2 / Fold change vs veh, CNOT2 / RFU, ZNF268 / Fold change vs veh, ZNF268 / Fold change vs veh, ZNF507 / RFU, DGCR2 / Fold change vs veh, DGCR2 / RFU, WDSUB1 / Fold change vs veh, WDSUB1 / Fold change vs veh, HSP90B1 /// MIR3652 / RFU, ADSS / Fold change vs veh, ADSS / RFU, GK / Fold change vs veh, GK / RFU, ZNF148 / Fold change vs veh, ZNF148 / RFU, TAF9 / Fold change vs veh, TAF9 / RFU, SLC1A5 / Fold change vs veh, SLC1A5 / RFU, SLMO2 / Fold change vs veh, SLMO2 / RFU, ABCC4 / Fold change vs veh, ABCC4 / RFU, LOC101060439 /// RAP1B / Fold change vs veh, LOC101060439 /// RAP1B / RFU, RFX7 / Fold change vs veh, RFX7 / RFU, GTPBP10 / Fold change vs veh, GTPBP10 / RFU, CNEP1R1 / Fold change vs veh, CNEP1R1 / RFU, BIVM-ERCC5 /// ERCC5 / Fold change vs veh, BIVM-ERCC5 /// ERCC5 / RFU, ILF3 / Fold change vs veh, ILF3 / RFU 11762660_at / Fold change /veh 11762660_at / RFU VCAN (11757783_s_at) / Fold change /veh VCAN (11757783_s_at) / RFU DDX43 (11728927_at) / Fold change /veh DDX43 (11728927_at) / RFU KRT8 (11758188_x_at) / Fold change /veh KRT8 (11758188_x_at) / RFU NKD1 (11759106_at) / Fold change /veh NKD1 (11759106_at) / RFU SRD5A1 (11742802_a_at) / Fold change /veh SRD5A1 (11742802_a_at) / RFU TPSAB1 /// TPSB2 (11721975_s_at) / Fold change /veh TPSAB1 /// TPSB2 (11721975_s_at) / RFU GSTM3 (11746129_a_at) / Fold change /veh GSTM3 (11746129_a_at) / RFU IL23R (11737362_x_at) / Fold change /veh IL23R (11737362_x_at) / RFU TMEM51 (11727254_a_at) / Fold change /veh TMEM51 (11727254_a_at) / RFU PIWIL2 (11732686_x_at) / Fold change /veh PIWIL2 (11732686_x_at) / RFU ORM1 (11744905_x_at) / Fold change /veh ORM1 (11744905_x_at) / RFU CCDC152 (11743942_at) / Fold change /veh CCDC152 (11743942_at) / RFU ECM1 (11717891_a_at) / Fold change /veh ECM1 (11717891_a_at) / RFU IL23R (11748794_a_at) / Fold change /veh IL23R (11748794_a_at) / RFU TNFAIP8L3 (11732012_x_at) / Fold change /veh TNFAIP8L3 (11732012_x_at) / RFU MBOAT4 (11741988_at) / Fold change /veh MBOAT4 (11741988_at) / RFU 11764193_at / Fold change /veh 11764193_at / RFU TMEM53 (11763286_at) / Fold change /veh TMEM53 (11763286_at) / RFU MAGEB2 (11727129_at) / Fold change /veh MAGEB2 (11727129_at) / RFU TMEM200A (11744735_a_at) / Fold change /veh TMEM200A (11744735_a_at) / RFU CCDC152 (11751479_a_at) / Fold change /veh CCDC152 (11751479_a_at) / RFU FAM211A (11726209_a_at) / Fold change /veh FAM211A (11726209_a_at) / RFU RGS16 (11746705_a_at) / Fold change /veh RGS16 (11746705_a_at) / RFU VCAN (11755009_s_at) / Fold change /veh VCAN (11755009_s_at) / RFU RHOB (11743442_s_at) / Fold change /veh RHOB (11743442_s_at) / RFU RGS16 (11720943_a_at) / Fold change /veh RGS16 (11720943_a_at) / RFU RGS16 (11720944_at) / Fold change /veh RGS16 (11720944_at) / RFU, VPS4B / Fold change vs veh, VPS4B / RFU, CREB1 / Fold change vs veh, CREB1 / RFU, DNAJC13 / Fold change vs veh, DNAJC13 / RFU, GNAQ / Fold change vs veh, GNAQ / RFU, CDK5R1 / Fold change vs veh, CDK5R1 / RFU, ZRANB3 / Fold change vs veh, ZRANB3 / RFU, CUL4A / Fold change vs veh, CUL4A / RFU, CCNY / Fold change vs veh, CCNY / RFU, UFL1 / Fold change vs veh, UFL1 / RFU, COG3 / Fold change vs veh, COG3 / RFU, DIAPH2 / Fold change vs veh, DIAPH2 / RFU, SKA2 / Fold change vs veh, SKA2 / RFU, AFF3 / Fold change vs veh, AFF3 / RFU, LMF1 / Fold change vs veh, LMF1 / RFU, IPO11 / Fold change vs veh, IPO11 / RFU, DFFB / Fold change vs veh, DFFB / RFU, FOXP1 / Fold change vs veh, FOXP1 / RFU, CARD8 / Fold change vs veh, CARD8 / RFU, STRN3 / Fold change vs veh, STRN3 / RFU, ADK / Fold change vs veh, ADK / RFU, RASSF2 / Fold change vs veh, RASSF2 / RFU, WIPF1 / Fold change vs veh, WIPF1 / RFU, LARP1B / Fold change vs veh, LARP1B / RFU, RASA1 / Fold change vs veh, RASA1 / RFU, RB1 / Fold change vs veh, RB1 / RFU, PPFIA1 / Fold change vs veh, PPFIA1 / RFU, MAT2A / Fold change vs veh, MAT2A / RFU, CCT5 / Fold change vs veh, CCT5 / RFU, WDR92 / Fold change vs veh, WDR92 / RFU, CUX1 / Fold change vs veh, CUX1 / RFU, TTC7A / Fold change vs veh, TTC7A / RFU, TMEM135 / Fold change vs veh, TMEM135 / RFU, DEPTOR / Fold change vs veh, DEPTOR / RFU, CPM / Fold change vs veh, CPM / RFU, DNAJB6 / Fold change vs veh, DNAJB6 / RFU, CACNA2D3 / Fold change vs veh, CACNA2D3 / RFU, DTX4 / Fold change vs veh, DTX4 / RFU, TFCP2 / Fold change vs veh, TFCP2 / RFU, GMCL1 /// GMCL1P1 / Fold change vs veh, GMCL1 /// GMCL1P1 / RFU, AEBP2 / Fold change vs veh, AEBP2 / RFU, SNHG1 /// SNORD22 /// SNORD25 /// SNORD26 /// SNORD27 /// SNORD28 /// SNORD29 /// SNORD31 / Fold change vs veh, SNHG1 /// SNORD22 /// SNORD25 /// SNORD26 /// SNORD27 /// SNORD28 /// SNORD29 /// SNORD31 / Fold change (Aza/veh), C12orf56 (ProbeSet 11735607_a_at) / Fold change (ACY-1035/veh), C12orf56 (ProbeSet 11735607_a_at) / Fold change (Aza/veh), FGFR1OP (ProbeSet 11751329_s_at) / Fold change (ACY-1035/veh), FGFR1OP (ProbeSet 11751329_s_at) / Fold change (Aza/veh), VPS36 (ProbeSet 11739960_a_at) / Fold change (ACY-1035/veh), VPS36 (ProbeSet 11739960_a_at) / RFU SYPL1 (11715823_x_at) / Fold change /veh SYPL1 (11715823_x_at) / RFU IGFBP7 (11715501_s_at) / Fold change /veh IGFBP7 (11715501_s_at) / RFU REEP3 (11722064_at) / Fold change /veh REEP3 (11722064_at) / RFU IGLL1 (11728026_x_at) / Fold change /veh IGLL1 (11728026_x_at): dose or concentration left out as unconfirmed
Settings: MV-4-11 cells, 48 hours

Q: Which “RFU CNN1 (11734310_a_at)” value does the source give for `Nc1ccc(-c2cccs2)cc1NC(=O)c1ccc2c(c1)cc(C1CC1)n2CCN1CCOCC1` [ACY-1035] here?
A: 26.40 RFU
